These results are taken from patent publication US8765702B2, “Composition and methods for modulating cell proliferation and cell death” (Rosetta Genomics Ltd., priority 2007, dated 2014).

For data set [1], the system named is Notch pathway in MCF7 cells. Put plainly: qRT-PCR of Notch pathway mRNAs (DLL1, Jag1, Notch1, Hey1). Format: cell-based, human. The protocol: (D) MCF7 cells were transfected with scramble or anti-miR-34a LNA oligos. 24 h post-transfection, 20 μM Nutlin-3 was added to the half of the samples for additional 48 h. RNA extraction and analysis was as in (B).
(§1) RNA quantification was performed by real-time qRT-PCR in an ABI PRISM 7300 Sequence Detection System (Applied Biosystems) with SYBR Green Master Mix (Applied Biosystems). For mRNA quantification, cDNA produced with random hexamers and MMLV reverse transcriptase (Promega) from 10 ng of total RNA was subjected to RT-PCR using super SYBR-green ready mix (Applied Biosystems) and specific DNA primers (Table 1 for the EST, Table 2 for p21, Hdm2, GAPDH and HPRT). For small RNAs (U6, 5S, microRNAs), 50 ng total RNA was converted to cDNA using specific primers for reverse transcription (Ambion) and MMLV reverse transcriptase. Relative expression levels were determined by real-time qRT-PCR using super SYBR-green ready mix and specific primers (Ambion). Quantification was done using standard curves. All reactions were performed in duplicate.

Data set [2] deals with U2OS cells. In words: Apoptosis by microscopy and FACS-based sub-G1 DNA content. Format: cell-based, human.
Data set [3] relates to Notch pathway in A172 cells. In words: qRT-PCR of Notch pathway mRNAs (DLL1, Jag1, Notch1, Hey1). It counts as cell-based. To be noted: 72 hours after transfection; for mRNA levels of DLL1, Jag1 or Notch1: normalized to GAPDH. The protocol: (B) A172 cells were transfected with either scrambled or anti-miR-34a LNA oligos. RNA was isolated 72 hours later, and subjected to qRT-PCR to determine relative levels of expression of DLL1, Jag1 and Notch1 (normalized to GAPDH).
(C) A172 cells were transfected with pcDNA3-pm34a-EST-MUT (MUT) or pcDNA3-pm34a-EST (EST). RNA extraction and analysis was as in (B).
as §1
A complementary, opposite effect on Hey1 expression was seen when miR-34a was over-expressed in A172 cells.

Data set [4] relates to EST-Prom-luc (miR-34a putative promoter). Put plainly: Dual luciferase assay with EST-Prom-luc in HCT116 cells. Format: cell-based, human. To be noted: HCT116 control (siLacZ) cells, 5-FU for 16 hours.
Data set [5] deals with p53 binding to the pm34a-EST p53BS. In words: Chromatin immunoprecipitation (ChIP). Format: cell-based, human. To be noted: HCT116 cells, 50 μg/ml 5-FU for 16 hours. The protocol:
(A) HCT116 cells stably expressing shRNA specific for p53 (sip53) or for LacZ (siLacZ) were either left untreated or treated for 16 hours with 50 μg/ml 5-FU, and then subjected to ChIP analysis with antibodies directed against p53 or HA as a control. The precipitated DNA was subjected to quantitative real-time PCR analysis with primers spanning the 5′ p53BS of the p21 gene, the putative p53BS of the pm34a-EST, or the GAPDH gene as a negative control. (B) Schematic representation of the DNA fragment (thick bar) cloned into the luciferase reporter plasmid. The positions of the p53BS and exons 1 and 2 of the pm34a-EST are also indicated. (C) The putative promoter of the pm34a-EST was cloned upstream to the firefly luciferase reporter gene in the pGL3-basic vector to yield plasmid EST-Prom-luc. EST-Prom-luc was transfected into H1299 cells without or with the indicated amounts of p53 expression plasmid. Luciferase activity was then measured by the dual luciferase assay, and normalized for Renilla luciferase activity. […]
ChIP analysis was performed as described (Minsky, 2004), employing the CM1 p53-specific polyclonal antibody or anti-HA polyclonal antibody as a control. […] Quantification of precipitated DNA was preformed by real-time qPCR, using an ABI PRISM 7300 Sequence Detection System. […]

For data set [6], the system named is pm34a-EST, miR-34a and p21 mRNA in H1299-TS cells. Put plainly: qRT-PCR of p53-dependent induction in the presence of cycloheximide. To be noted: H1299-TS cells shifted to 32° C., 80 nM CHX. Format: cell-based, human. The procedure:
(A) H1299 and 111299-TS cells were either left untreated or supplemented with 80 nM cycloheximide (CHX) for 30 min before being shifted to either 37° C. or 32° C. Cells were then incubated for the indicated time periods with continuous exposure to the drug. RNA was isolated and subjected to qRT-PCR analysis with primers specific for pm34a-EST. Values were normalized for HPRT in the same samples. (B) H1299-TS cells were processed essentially as in (A), except that CHX was added only where indicated. RNA was subjected to qRT-PCR with primers specific for mature miR-34a. Values were normalized for U6 RNA in the same samples. (C) The same RNA samples as in (B) were subjected to qRT-PCR analysis with primers specific for p21 mRNA. […]
as §1, with “For small RNAs (U6, 5S, microRNAs), 50 ng total RNA was converted to cDNA using specific primers for reverse transcription (Ambion) and MMLV reverse transcriptase.” left out, “All reactions were performed in duplicate.” left out

The test system of data set [7] is p53 mRNA and p21 mRNA in U2OS cells. Put plainly: qRT-PCR analysis of p53 mRNA and p21 mRNA after Nutlin-3. It counts as cell-based, human. To be noted: 20 μM Nutlin-3 for 48 h, normalized to HPRT. The procedure: (A) HCT116 cells stably expressing shRNA against p53 (sip53) or LacZ (siLacZ) were either treated with 50 μg/ml 5-FU for 16 h or left untreated. […] total RNA from each sample was subjected to qRT-PCR analysis of p21 mRNA. Results were normalized to HPRT expression in the same samples. (B) U2OS cells stably expressing shRNA against p53 (sip53) or LacZ (siLacZ) were either treated with 20 μM Nutlin-3 for 48 h or left untreated. RNA from each sample was subjected to qRT-PCR analysis of p53 mRNA and p21 mRNA. […] The modest increase in p53 mRNA (1.8 fold) has not been further investigated. (C) Western blot analysis of 20 μg total protein extracted from parallel cultures treated as in (A). […]
as §1, with “For small RNAs (U6, 5S, microRNAs), 50 ng total RNA was converted to cDNA using specific primers for reverse transcription (Ambion) and MMLV reverse transcriptase.” left out, “All reactions were performed in duplicate.” left out

The test system of data set [8] is Bcl-2. In words: Western blot analysis of Bcl-2 protein. To be noted: H1299 or U2OS cells, 100 nM pre-miR-34a RNA oligonucleotides, three days post-transfection. It counts as cell-based, human. The procedure:
(§2) (A) H1299 or U2OS cells were transiently transfected with 100 nM control scrambled RNA (cont) or pre-miR-34a RNA oligonucleotides (pre-34a, Ambion) using siPORT NeoFX transfection reagent (Ambion). Three days post-transfection, cell extracts were prepared. 30 μg of total protein was subjected to SDS-15% polyacrylamide gel electrophoresis followed by Western blot analysis with antibodies directed against GAPDH (MAB374, Chemicon) and Bcl-2 (C-2, Santa Cruz). (B) Total RNA was extracted from identical cultures as in (A) using the mirVana miRNA isolation kit (Ambion). RNA was converted to cDNA using random hexamers and MMLV reverse transcriptase (Promega). cDNA obtained from 10 ng total RNA was subjected to real-time PCR analysis using specific primers for Bcl-2 mRNA (forward primer—5′-[…]-3′ (SEQ ID NO: 42), reverse primer—5′-ATCAAACAGAGGCCGCATG-3′ (SEQ ID NO: 43) and super SYBR-green ready mix (Applied Biosystems) in an ABI PRISM 7300 Sequence Detection System (Applied Biosystems). Bcl-2 mRNA levels were normalized relative to GAPDH mRNA (forward primer—5′-[…]-3′ (SEQ ID NO: 44), reverse primer—5′-AAAAGCAGCCCTGGTGACC-3′) (SEQ ID NO: 45) in the same samples. RU=relative units. (C) 200 ng of total RNA obtained from (B) was subjected to quantitative real-time RT-PCR using primers for mature miR-34a. Values were normalized relative to U6 RNA levels in the same samples. […]

Data set [9] relates to Bcl-2 mRNA. Put plainly: Real-time PCR analysis of Bcl-2 mRNA. Format: cell-based, human. To be noted: H1299 or U2OS cells, 100 nM pre-miR-34a RNA oligonucleotides, normalized to GAPDH mRNA. The protocol:
as §2

Turning to “5′-aacaaccagctaagacactgcca-3′ (antisense AACAACCAGCTAAGACACTGCCA; LNA-modified, pattern not given here) [LNA anti-miR-34a]”, the “expression of Hey1 following p53 activation” value in [1] (20 μM Nutlin-3 for 48 h) was “stronger effect”. The “expression of Hey1” value in data set [1] (versus scrambled LNA) and in [3] was “up-regulation” each time. The “mRNA levels of DLL1, Jag1 or Notch1” value in data set [1] (versus scrambled LNA) and in data set [3] was “no effect” in each case. The “protection from apoptosis in p53 knockdown cells” value in data set [2] (U2OS cells stably expressing p53 shRNA (sip53)) is reported as “not observed”. For the same molecule, the spontaneous apoptosis entry in data set [2] (U2OS cells, 100 nM LNA, versus scrambled oligonucleotide) was “decrease in spontaneous apoptosis”. The “apoptosis due to Nutlin-3 treatment” value in data set [2] (U2OS siLacZ cells, 100 nM LNA with 20 μM Nutlin-3 for 48 hours) was “partial protection”.

For `O=c1[nH]cc(F)c(=O)[nH]1` [5-FU, 5 fluorouracil], the luciferase activity result in data set [4] is “nearly twofold increase”. In data set [5], the “p53 binding to the pm34a-EST p53BS” value is recorded as “further augmented”.

With `C[C@@H]1C[C@@H]([C@H](O)CC2CC(=O)NC(=O)C2)C(=O)[C@@H](C)C1` [CHX, cycloheximide], in data set [6], the “induction of pm34a-EST or mature miR-34a” value is “did not prevent the induction” and the “p21 mRNA induction” value is listed as “nor did it affect”.

As to `COc1ccc(C2=N[C@@H](c3ccc(Cl)cc3)[C@@H](c3ccc(Cl)cc3)N2C(=O)N2CCNC(=O)C2)c(OC(C)C)c1` [Nutlin-3], in data set [1] (20 μM Nutlin-3 for 48 h), the “Jag1 and Notch1 mRNA levels” value is “induction”. For the same molecule, in [2] (U2OS cells, 20 μM Nutlin-3 for 48 hours), the apoptosis result was “enhanced apoptosis”. For the same molecule, in data set [7], the “p21 mRNA increase” value was determined as 10.3 fold and the “p53 mRNA increase” value was determined as 1.8 fold.

Turning to “miR-34a: microRNA SEQ ID NO: 1; overexpressed via pcDNA3-pm34a-EST (A172) or pre-miR-34a RNA oligonucleotides, Ambion (Bcl-2 study) (UGGCAGUGUCUUAGCUGGUUGUU; listed as RNA, chemistry not fully specified; listed as Homo sapiens)”, the Bcl-2 protein entry in data set [8] is recorded as “decreased”. In [3], the “expression of Hey1” value is listed as “reduction in Hey1 mRNA” and the “mRNA levels of DLL1, Jag1 or Notch1” value was “absence of any change”. The “Bcl-2 mRNA” value in [9] is listed as “without a measurable decrease”.
